Target: T1, human GluR4B receptor (Homo sapiens, UniProt P48058)
T1 construct: transported to the cell surface in mature form, lacking the signal peptide and consisting of 881 amino acids; expressed in transfected cells; host or cells: COS-1 cells (ATCC CRL 1650), transient, plasmid pcDNAI/humGluR4B
Assay: ligand binding assay (NMDA), membranes of human GluR4B receptor-producing COS cells
Details: COS cell membrane preparation

T1 sequence (P48058 21-902): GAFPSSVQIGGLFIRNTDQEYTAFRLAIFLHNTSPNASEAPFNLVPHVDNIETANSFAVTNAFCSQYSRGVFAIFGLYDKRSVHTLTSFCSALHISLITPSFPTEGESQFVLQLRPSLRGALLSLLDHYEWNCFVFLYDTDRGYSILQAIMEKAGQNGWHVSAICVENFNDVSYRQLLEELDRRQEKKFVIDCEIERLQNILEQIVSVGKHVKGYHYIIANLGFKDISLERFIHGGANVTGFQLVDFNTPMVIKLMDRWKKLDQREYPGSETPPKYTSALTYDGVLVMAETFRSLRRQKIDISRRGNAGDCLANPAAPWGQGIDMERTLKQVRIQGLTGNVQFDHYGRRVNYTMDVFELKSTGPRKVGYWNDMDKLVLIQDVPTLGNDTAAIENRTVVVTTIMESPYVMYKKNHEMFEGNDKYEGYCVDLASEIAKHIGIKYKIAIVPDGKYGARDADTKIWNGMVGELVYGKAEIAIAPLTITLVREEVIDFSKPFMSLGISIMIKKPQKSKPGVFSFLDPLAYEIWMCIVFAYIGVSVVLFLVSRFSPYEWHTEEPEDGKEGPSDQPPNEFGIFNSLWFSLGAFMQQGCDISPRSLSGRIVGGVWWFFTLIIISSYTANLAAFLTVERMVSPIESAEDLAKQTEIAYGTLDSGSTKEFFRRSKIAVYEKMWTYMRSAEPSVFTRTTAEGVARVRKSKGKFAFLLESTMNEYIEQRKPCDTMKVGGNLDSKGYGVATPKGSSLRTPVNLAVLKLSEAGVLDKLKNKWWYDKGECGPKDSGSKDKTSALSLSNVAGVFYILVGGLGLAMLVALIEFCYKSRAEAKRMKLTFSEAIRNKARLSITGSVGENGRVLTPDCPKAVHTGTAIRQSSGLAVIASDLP

SMILES: CN[C@H](CC(=O)O)C(=O)O [NMDA, N-methyl-D-aspartate]
- binding of NMDA to human GluR4B receptor: little or no demonstrable binding
